Values quoted from earlier work in patent publication US20240197753A1, “PHARMACEUTICAL COMPOSITION FOR IMPROVING CARDIAC FUNCTION” (OSAKA UNIVERSITY, priority 2021, published 2024).

O=C(O)COc1cccc2c1CCC=C2CCO/N=C(\c1ccccc1)c1cccnc1 [ONO-1301, ({5-[2-({[(1E)-phenyl(pyridin-3-yl)methylene]amino}oxy)ethyl]-7,8-dihydronaphthalen-1-yl}oxy)acetic acid]
no-observed-adverse-effect level (blood ONO-1301 concentration) (oral dosing phase I study): 23.69 ng/mL | no-observed-effect level (blood ONO-1301 concentration) (oral dosing phase I study): 15.61 ng/mL | Safety margin (efficacy: platelet aggregation inhibition; side effects: epigastric pain, fever, cold sweat, diarrhea, etc.) (oral, Phase I clinical trials): narrow
